Earlier results in patent publication US20260355142A1, “AMORPHOUS OTE[…] COMPOSITIONS AND USES THEREOF AND DOSAGE REGIMENS FOR OTENAPROXESUL” (ANTIBE THERAPEUTICS INC., priority 2022, published 2026).

Conditions: efficacious dose of naproxen, known in the art; cited from earlier work

Structure (SMILES): COc1ccc2cc([C@H](C)C(=O)O)ccc2c1 [naproxen, (2S)-2-(6-methoxynaphthalen-2-yl) propanoic acid]
- patients with noticeable GI injury: approximately 30%
